Data published in patent US20060104944A1, “Activators and inhibitors of protease activated receptor2 (PAR2) and methods of use” (priority 2004, published 2006).
No end group written: not given here. *: point of attachment. tc = trans-cinnamoyl N-cap, O=C(/C=C/c1ccccc1)*; code O = not defined here

Tests used:
[1] = system: chick chorioallantoic membrane (CAM); experiment: Neovascularization in the chick chorioallantoic membrane (CAM) model; format: in vivo; settings: for PAR2-induced angiogenesis in the CAM model: in words, FIG. 3, Table 5; for Branch Points ± SEM: Table 3, agent alone: FGF2 1 ug/ml, VEGF 2 ug/ml, PAR-1 3 ug, PAR-2 0.3 ug, n = 8; for Mean Number of Branch Points ± SD: Table 4, agent alone: FGF2 1.0 μg, PAR2 agonist 5.0 μg, TF/factor VIIa, N = 16
Protocol: In vivo neovascularization was examined by the method previously described by Auerbach et al. (Auerbach et al., J. Dev. Biol., 41:391-394 (1974), which is hereby incorporated by reference in its entirety). Ten-day old embryos were purchased from Spafas, Inc. (Preston, Conn.) and were incubated at 37° C. with 55% relative humidity. In the dark with the help of a candling lamp, a small hole was punctured in the shell concealing the air sac with a hypodermic needle. A second hole was punctured in the shell on the broadside of the egg directly over an avascular portion of the embryonic membrane, as observed during candling. A false air sac was created beneath the second hole by the application of negative pressure to the first hole, which caused the chorioallantoic membrane (CAM) to separate from the shell. A window, approximately 1.0 cm^2, was cut in the shell over the dropped CAM with the use of a small crafts grinding wheel (Dremel, Division of Emerson Electric Company Racine, Wisconsin) which allowed direct access to the underlying CAM. Filter disks of #1 filter paper (Whatman International, United Kingdom) were soaked in 3 mg/ml cortisone acetate (Sigma, St. Louis, Mo.) in a solution of 95% ethanol and water and subsequently air dried under sterile conditions. FGF2 (Life Technologies, Gaithersburg, Md.) was used to grow vessels on the CAMs of 10 day old chick embryos. Sterile filter disks adsorbed with FGF2 dissolved in PBS at 1 μg/ml were placed on growing CAMs. […] At 24 h, test compounds or control vehicle was added directly to CAM topically.
CAM tissue directly beneath FGF2-saturated filter disk was resected from embryos treated 48 hours prior with test compound or control. Tissues were washed three times with PBS. Sections were placed in a 35-mm petri dish (Nalge Nunc, Rochester, N.Y.) and examined under a SV6 stereomicroscope (Karl Zeiss, Thornwood, N.Y.) at 50× magnification. Digital images of CAM sections adjacent to filters were collected using a 3-CCD color video camera system (Toshiba America, New York, N.Y.) and analyzed using Image-Pro Plus software (Media Cybernetics, Silver Spring, Md.).
CAM tissue directly beneath FGF2-saturated filter disk was resected from embryos treated 48 h prior with compound or control. Tissues were washed three times with PBS. Sections were placed in a 35-mm petri dish (Nalge Nunc, Rochester, N.Y.) and examined under a SV6 stereomicroscope (Karl Zeiss, Thornwood, N.Y.) at 50× magnification. Digital images of CAM sections adjacent to filters were collected using a 3-CCD color video camera system (Toshiba America, New York, N.Y.) and analyzed with the Image-Pro Plus software (Media Cybernetics, Silver Spring, Md.).

[2] = system: chick chorioallantoic membrane (CAM); experiment: as above; format: in vivo; settings: Table 5; for Mean % Inhibition ± SEM: inhibition of PAR-2 (SEQ ID NO: 3, 0.3 ug/ml) stimulated angiogenesis, inhibitor doses as E12
PAR-1 [3] = biological target: T1, PAR-1 (Homo sapiens, UniProt P25116); settings: PAR-1 antagonist, variety of bioassays; cited from earlier work
T1 sequence (P25116 22-425): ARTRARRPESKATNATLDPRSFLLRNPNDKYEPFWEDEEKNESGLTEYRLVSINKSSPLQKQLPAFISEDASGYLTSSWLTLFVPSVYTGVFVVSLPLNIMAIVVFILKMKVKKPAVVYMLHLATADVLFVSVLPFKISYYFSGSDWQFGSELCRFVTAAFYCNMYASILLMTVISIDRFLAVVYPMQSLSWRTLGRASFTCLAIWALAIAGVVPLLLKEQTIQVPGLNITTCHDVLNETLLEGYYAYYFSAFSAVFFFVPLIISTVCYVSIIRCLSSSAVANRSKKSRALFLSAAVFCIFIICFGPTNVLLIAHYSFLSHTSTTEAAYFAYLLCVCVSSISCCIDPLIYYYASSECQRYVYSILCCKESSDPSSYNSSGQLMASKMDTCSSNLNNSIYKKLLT

PAR-2 [4] = biological target: T2, PAR-2 (Homo sapiens, UniProt P55085); settings: in words; cited from earlier work
T2 sequence (P55085 26-397): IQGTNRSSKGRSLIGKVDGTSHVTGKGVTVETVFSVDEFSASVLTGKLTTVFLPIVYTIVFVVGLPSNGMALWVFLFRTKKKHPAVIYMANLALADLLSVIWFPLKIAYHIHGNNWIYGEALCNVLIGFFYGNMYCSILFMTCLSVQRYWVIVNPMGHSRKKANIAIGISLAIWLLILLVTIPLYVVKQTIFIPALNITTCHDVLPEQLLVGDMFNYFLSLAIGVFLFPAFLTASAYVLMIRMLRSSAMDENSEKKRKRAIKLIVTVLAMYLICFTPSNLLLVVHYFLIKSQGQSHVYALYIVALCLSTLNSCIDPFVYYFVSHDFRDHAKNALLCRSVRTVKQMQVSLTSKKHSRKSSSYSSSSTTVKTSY

[5] = system: Human umbilical vein endothelial cells (HUVEC); experiment: Endothelial cell tube formation on Matrigel; format: cell-based; settings: agent alone; FGF2 0.1 μg, PAR2 agonist 0.25 μg; n = 3
Protocol: Differentiation by endothelial cells was examined using a method developed by Grant et al. (Grant et al., In Vitro Cell Dev. Biol., 27A:327-336 (1991), which is hereby incorporated by reference in its entirety). Matrigel® matrix, phenol-red free (commercially available from Becton Dickinson, Bedford, Mass.) was thawed overnight at 4° C. Using cold pipette tips, 3.0 mg/well of Matrigel® matrix was placed in a cold twenty-four-multiwell plate (Falcon). Matrigel® matrix was allowed to polymerize during incubation at 37° C. for 30 minutes.
Human umbilical vein endothelial cells (HUVEC) were maintained at 37° C. with 5% CO2 and 95% humidity in endothelial cell growth medium with 2% fetal bovine serum (EGM). The tube assay was performed in endothelial cell basal medium (EBM) supplemented with 0.5% bovine serum albumin (BSA) and 1:100 diluted Insulin-Transferrin-Selenium-G supplement (I-T-Se, 100×). HUVEC were trypsinized, centrifuged, and, subsequently, washed twice in phosphate buffered saline (PBS). […] Digital images of micro-titer well sections were collected using a DKC5000 3-CCD color video camera system (Toshiba America, New York, N.Y.) and analyzed using Image-Pro Plus software (Media Cybernetics, Silver Spring, Md.). The area and major axis length of stained cells having a tubular morphology was measured on the Matrigel® matrix surface (Becton Dickinson, Bedford, Pa.).

rat aorta = settings: in words; cited from earlier work
PAR-1 [6] = biological target: T1, PAR-1; settings: at PAR-1; in words; cited from earlier work
[7] = system: Human dermal micro-vascular endothelial cells (HDMEC); experiment: In vitro 3D sprout angiogenesis (vessel tube length) assay; format: cell-based; settings: agent alone, 1 ug
Protocol: Culture of HDMEC on micro-carrier beads: 80% confluent HDMEC (Passage 5-10) were mixed with gelatin-coated Cytodex-3 beads with a ratio of 40 cells per bead. Suspend cells and beads (150-200 beads per well for 24-well plate) with 5 ml EBM+15% normal human serum, mix gently every one hour for first four hours, then leave the mixture culture in CO2 incubator overnight. The next morning, add 10 ml of fresh EBM+15% HS and culture for another three hours. Before experiments, check the culture of EC-beads. Add 500 μl of PBS in a well of 24-well plate, take 100 ul of the EC-bead culture solution, and add it to the PBS, observe and count the number of beads, calculate the concentration of EC-beads. The EC-beads are good for experiments for 48 hours.
Prepare fibrinogen solution (1 mg/ml) in EBM medium with or without angiogenesis factors or testing factors. For positive control, use 30 ng/ml VEGF+25 ng/ml FGF2. Wash EC-beads with EBM medium for two times and add EC-beads to fibrinogen solution. For each condition, do experiment in triplicates. Mix the EC-beads in fibrinogen solution gently and add 2.5 μl human thrombin (0.05 U/μl) in 1 ml fibrinogen solution, immediately transfer 300 ul to each well of 24-well plate. The fibrinogen solution will polymerize in 5-10 minutes, after 20 minutes, add EBM+20% normal human serum+10 μg/ml Aprotinin. Incubate the plate in CO2 incubator. […]

PAR-2 [8] = biological target: T2, PAR-2; settings: at PAR-2; in words; cited from earlier work
[9] = system: isolated blood vessel preparations; settings: in words, cited from earlier work
[10] = PAR-2 (SEQ ID NO: 3, 0.3 ug/ml) + inhibitor: XT199 10 ug, anti-VII/VIIa 3 ug, PD98059 5 ug, Hirudin 1 U, PAR-2 mAb 3 ug, anti-TF mAb 2 ug

With `COc1cccc(-c2cc(=O)c3ccccc3o2)c1N` [PD98059] the “PAR2-induced angiogenesis in the CAM model” value [1] was “blocked”, the “Mean Branch points ± SEM” value [2, 10] was 102 ± 9 and the “Mean % Inhibition ± SEM” value [2] was 88 ± 12%.

For `NCC[C@H](NC(=O)[C@H](Cc1ccc(F)c(F)c1)NC(=O)Nc1ccc2c(CN3CCCC3)cn(Cc3c(Cl)cccc3Cl)c2c1)C(=O)NCc1ccccc1` [RWJ-56110], the IC50 (PAR-1 [3]) is listed as 0.1 to 0.5 µM and the “activity as a PAR-2 antagonist” value (PAR-2 [4]) is listed as “inactive”.

With “FGF2: human fibroblast growth factor basic” the “increase in angiogenesis index” value ([1]; 1 μg of FGF2) was 2-3 fold, the “Branch Points ± SEM” value [1] was 182 ± 11 and the “Mean Number of Branch Points ± SD” value [1] was 198 ± 14. For the same molecule, the “Mean Endothelial tube length (mm) ± SD” value [5] was 64 ± 5 mm.

For FSLLRY [FSLLRY-NH2, PAR2 antagonist], the trypsin relaxant activity (rat aorta) is given as “antagonize” and the agonistic activity (PAR-1 [6]) is given as “lack agonistic activity”.

With “HOOC-L-I-G-R-L-O-NH2 (LIGRL-{code O-NH2}; reading uncertain; also: 'HOOC-' written at N-terminus) [SEQ ID NO: 3]” the “Mean Branch points ± SEM” value ([2]; PAR-2 agonist alone, 0.3 ug/ml, n = 8) was 176 ± 14 and the “Mean Branch points ± SEM” value ([2]; PAR-2 agonist alone, 0.3 ug/ml, n = 8, listed as PAR-2) was 186 ± 17.

For “HOOC-S-L-I-G-K-V-NH2 (SLIGKV-NH2; also: 'HOOC-' written at N-terminus) [SEQ ID NO: 5]”, the “Branch Points ± SEM” value [1] was 197 ± 15, the “Mean Number of Branch Points ± SD” value [1] was 205 ± 8 and the “Vessel Length(mm) ± SEM” value [7] was 1.39 ± 0.28 mm.

With “HOOC-S-L-I-G-R-L-NH2 (SLIGRL-NH2; also: 'HOOC-' written at N-terminus) [SEQ ID NO: 4]” the “Mean Endothelial tube length (mm) ± SD” value [5] was 58 ± 4 mm.

For Hirudin, the “PAR2-induced angiogenesis in the CAM model” value [1] was “not”, the “Mean Branch points ± SEM” value [2, 10] was 174 ± 9 and the “Mean % Inhibition ± SEM” value [2] was 3 ± 8%.

In the case of LSIGRL [LSIGRL-NH2, PAR2 antagonist], the agonistic activity (PAR-2 [8]) is given as “lack agonistic activity”.

For “TFLLRN [SEQ ID NO: 6, PAR1 agonist peptide used for comparison]”, the “Branch Points ± SEM” value [1] was 101 ± 7 and the “Vessel Length(mm) ± SEM” value [7] was 0.88 ± 0.08 mm.

In the case of VEGF, the “Branch Points ± SEM” value [1] is reported as 168 ± 10.

For “tc-LIGRLO (tc-LIGRL-{code O}; reading uncertain; also: printed as tc-LIGRLO)”, the “activity in the relaxation assay” value ([9]; compared with SLIGRL) is listed as “equally active” and the contraction [9] is listed as “does not cause contraction”.
